For experiment [1], the species on record is Rattus norvegicus. Kind of experiment: Tested for inhibition of rat glial cell gap junction at the concentration of 20 uM. It counts as functional.
The species named for experiment [2] is Rattus norvegicus. Briefly: Inhibition of rat glial cell gap junction at the concentration of 50 uM. It counts as functional.

As usually defined, the inhibition is the percentage by which the read-out fell short of the control. A high value points to strong suppression.

Compound `CCCCCCCC/C=C\CCCCCCCC(=O)N(CC)CC` yielded an inhibition at 20 µM in the experiment listed under Rattus norvegicus [1] of 15%. The compound further gave an inhibition at 50 µM in the experiment listed under Rattus norvegicus [2] of 100%.

In the experiment filed under Rattus norvegicus [2], `CCCCC/C=C\C/C=C\C/C=C\C/C=C\CCCC(=O)N(C)C(C)C` displayed an inhibition at 50 µM of 100%.

Compound `CCCCC/C=C\C/C=C\C/C=C\C/C=C\CCCC(=O)NC` registered an inhibition at 50 µM in the experiment filed under Rattus norvegicus [2] of 100%.

For `CCCCCCCC/C=C\CCCCCCCC(=O)N(C)C`, testing at 20 µM in the experiment filed under Rattus norvegicus [1] gave an inhibition of 70%. Further, the inhibition at 50 µM in the experiment listed under Rattus norvegicus [2] stood at 100%.

Turning to `CCCCC/C=C\C/C=C\C/C=C\C/C=C\CCCC(=O)NCCCC`, at 50 µM the inhibition in the experiment listed under Rattus norvegicus [2] was 10%. In the experiment filed under Rattus norvegicus [1], `CCCCCCCC/C=C\CCCCCCCC(=O)NCCO` [OLEOYLETHANOLAMIDE] had an inhibition at 20 µM of 0%. This compound returned an inhibition at 50 µM in the experiment filed under Rattus norvegicus [2] of 100%.

Regarding `CCCCC/C=C\C/C=C\C/C=C\C/C=C\CCCC(=O)NCCO` [ANANDAMIDE], testing at 20 µM in the experiment listed under Rattus norvegicus [1] gave an inhibition of 35%. The same compound gave an inhibition at 50 µM in the experiment listed under Rattus norvegicus [2] of 100%.

For the compound `CCCCCCCC/C=C\CCCCCCCC(=O)N1CCCC1`, at 20 µM the inhibition in the experiment listed under Rattus norvegicus [1] was 0%. Moreover, the inhibition at 50 µM in the experiment listed under Rattus norvegicus [2] was 100%. As for `CCCCC/C=C\C/C=C\C/C=C\C/C=C\CCCC(=O)N(CCO)CCO`, the inhibition at 20 µM in the experiment filed under Rattus norvegicus [1] was 0%. Also, 50 µM produced 0% inhibition in the experiment filed under Rattus norvegicus [2]. In the experiment filed under Rattus norvegicus [1], `CCCCCCCC/C=C\CCCCCCCC(=O)O` [OLEIC ACID] returned an inhibition at 20 µM of 0%. The same compound gave an inhibition at 50 µM in the experiment filed under Rattus norvegicus [2] of 0%. As for `CCCCCCCC/C=C\CCCCCCCC(=O)N(C)C(C)C`, the inhibition at 50 µM in the experiment listed under Rattus norvegicus [2] was 100%. The compound `CCCCCCCC/C=C\CCCCCCCC(=O)NCCCc1ccccc1` came in with an inhibition at 50 µM in the experiment filed under Rattus norvegicus [2] of 0%. In turn, `CCCCC/C=C\C/C=C\C/C=C\C/C=C\CCCC(=O)N(C)OC` gave an inhibition at 50 µM in the experiment filed under Rattus norvegicus [2] of 100%. Compound `CCCCCCCC/C=C\CCCCCCCC(=O)NCCCC` had an inhibition at 50 µM in the experiment listed under Rattus norvegicus [2] of 100%. On the same count and under the same terms, then `CCCCCCCC/C=C\CCCCCCCC(=O)NO`, with 100%. Consider `CCCCCCCC/C=C\CCCCCCCC(N)=O` [OLEAMIDE], for which 20 µM produced 100% inhibition in the experiment filed under Rattus norvegicus [1]. In the experiment filed under Rattus norvegicus [2], this compound registered an inhibition at 50 µM of 100%. As to `CCCCCCCC/C=C\CCCCCCCC(=O)N(CCO)CCO`, the inhibition at 20 µM in the experiment listed under Rattus norvegicus [1] worked out at 0%. Testing at 50 µM in the experiment filed under Rattus norvegicus [2] gave an inhibition of 8%. On to `C=CCNC(=O)CCCCCCC/C=C\CCCCCCCC`, for which the inhibition at 50 µM in the experiment filed under Rattus norvegicus [2] stood at 100%. On the same count and under the same terms, to `CCCCC/C=C\C/C=C\C/C=C\C/C=C\CCCC(=O)N(CC)CC` belongs 100%; to `CCCCCCCC/C=C\CCCCCCCC(=O)NCCCO`, 100%; to `C=CCNC(=O)CCC/C=C\C/C=C\C/C=C\C/C=C\CCCCC`, 90%. On to `CCCCCCCC/C=C\CCCCCCCC(=O)NC1CC1`, for which 50 µM produced 100% inhibition in the experiment listed under Rattus norvegicus [2]. The compound `CCCCCCCC/C=C\CCCCCCCC(=O)NC(C)C` yielded an inhibition at 50 µM in the experiment listed under Rattus norvegicus [2] of 100%. For the compound `CCCCC/C=C\C/C=C\C/C=C\C/C=C\CCCC(=O)NCC`, 50 µM produced 100% inhibition in the experiment filed under Rattus norvegicus [2]. In the case of `CCCCC/C=C\C/C=C\C/C=C\C/C=C\CCCC(=O)O` [ARACHIDONIC ACID], at 20 µM the inhibition in the experiment listed under Rattus norvegicus [1] was 0%. This compound also returned an inhibition at 50 µM in the experiment listed under Rattus norvegicus [2] of 0%. In turn, `CCCCC/C=C\C/C=C\C/C=C\C/C=C\CCCC(=O)NC1CC1` returned an inhibition at 50 µM in the experiment listed under Rattus norvegicus [2] of 100%. `CCCCCCCC/C=C\CCCCCCCC(=O)NCC` gave an inhibition at 20 µM in the experiment listed under Rattus norvegicus [1] of 50%. In addition, 50 µM produced 100% inhibition in the experiment listed under Rattus norvegicus [2]. In the case of `CCCCC/C=C\C/C=C\C/C=C\C/C=C\CCCC(=O)NC(C)C`, in the experiment listed under Rattus norvegicus [2], the inhibition at 50 µM stood at 100%. Consider `CCCCC/C=C\C/C=C\C/C=C\C/C=C\CCCC(=O)N1CCCC1`, for which at 50 µM the inhibition in the experiment listed under Rattus norvegicus [2] was 100%. `CCCCCCCC/C=C\CCCCCCCC(=O)N(C)OC` displayed an inhibition at 20 µM in the experiment listed under Rattus norvegicus [1] of 100%. The compound further came in with an inhibition at 50 µM in the experiment listed under Rattus norvegicus [2] of 100%. In turn, `CCCCCCCC/C=C\CCCCCCCC(=O)NCCC` displayed an inhibition at 20 µM in the experiment filed under Rattus norvegicus [1] of 50%. Moreover, 50 µM produced 90% inhibition in the experiment listed under Rattus norvegicus [2]. Compound `CCCCCCCC/C=C\CCCCCCCC(=O)NC` registered an inhibition at 20 µM in the experiment filed under Rattus norvegicus [1] of 70%. The compound further had an inhibition at 50 µM in the experiment filed under Rattus norvegicus [2] of 100%. `CCCCC/C=C\C/C=C\C/C=C\C/C=C\CCCC(N)=O` [ARACHIDONAMIDE]: the inhibition at 20 µM in the experiment filed under Rattus norvegicus [1] is 90%. Also, in the experiment listed under Rattus norvegicus [2], the inhibition at 50 µM is 100%. For `CCCCC/C=C\C/C=C\C/C=C\C/C=C\CCCC(=O)N(C)C`, testing at 50 µM in the experiment listed under Rattus norvegicus [2] gave an inhibition of 100%.

For `CCCCC/C=C\C/C=C\C/C=C\C/C=C\CCCC(=O)N(CCC)CCC`, the inhibition at 50 µM in the experiment filed under Rattus norvegicus [2] came out at 10%. Same read-out and setting: then `CCCCC/C=C\C/C=C\C/C=C\C/C=C\CCCC(=O)NCCC`, with 100%. Regarding `CCCCCCCC/C=C\CCCCCCCC(=O)Nc1ccccc1` [OLEIC ACID ANILIDE], the inhibition at 50 µM in the experiment listed under Rattus norvegicus [2] stood at 0%.

(Values after ChEMBL document CHEMBL1131678, “Arachidonic acid amide inhibitors of gap junction cell-cell communication” (1999).)
